# Test results as given in paper PMC7026418, “The kinase polypharmacology landscape of clinical PARP inhibitors” (Scientific Reports, 2020).
# Like-named read-outs stand apart in the source and are kept apart here.
# What was measured:
# Assay in all cases: biochemical
# Set-up in all cases: DiscoveRx KINOMEscan active site-directed competition binding; percent of control kinase bound to immobilised ligand
# EPHA7 = EPHA7 (Homo sapiens, UniProt Q15375)
# HIPK3 = HIPK3 (Homo sapiens, UniProt Q9H422)
# HIPK3, sequence (Q9H422 whole entry): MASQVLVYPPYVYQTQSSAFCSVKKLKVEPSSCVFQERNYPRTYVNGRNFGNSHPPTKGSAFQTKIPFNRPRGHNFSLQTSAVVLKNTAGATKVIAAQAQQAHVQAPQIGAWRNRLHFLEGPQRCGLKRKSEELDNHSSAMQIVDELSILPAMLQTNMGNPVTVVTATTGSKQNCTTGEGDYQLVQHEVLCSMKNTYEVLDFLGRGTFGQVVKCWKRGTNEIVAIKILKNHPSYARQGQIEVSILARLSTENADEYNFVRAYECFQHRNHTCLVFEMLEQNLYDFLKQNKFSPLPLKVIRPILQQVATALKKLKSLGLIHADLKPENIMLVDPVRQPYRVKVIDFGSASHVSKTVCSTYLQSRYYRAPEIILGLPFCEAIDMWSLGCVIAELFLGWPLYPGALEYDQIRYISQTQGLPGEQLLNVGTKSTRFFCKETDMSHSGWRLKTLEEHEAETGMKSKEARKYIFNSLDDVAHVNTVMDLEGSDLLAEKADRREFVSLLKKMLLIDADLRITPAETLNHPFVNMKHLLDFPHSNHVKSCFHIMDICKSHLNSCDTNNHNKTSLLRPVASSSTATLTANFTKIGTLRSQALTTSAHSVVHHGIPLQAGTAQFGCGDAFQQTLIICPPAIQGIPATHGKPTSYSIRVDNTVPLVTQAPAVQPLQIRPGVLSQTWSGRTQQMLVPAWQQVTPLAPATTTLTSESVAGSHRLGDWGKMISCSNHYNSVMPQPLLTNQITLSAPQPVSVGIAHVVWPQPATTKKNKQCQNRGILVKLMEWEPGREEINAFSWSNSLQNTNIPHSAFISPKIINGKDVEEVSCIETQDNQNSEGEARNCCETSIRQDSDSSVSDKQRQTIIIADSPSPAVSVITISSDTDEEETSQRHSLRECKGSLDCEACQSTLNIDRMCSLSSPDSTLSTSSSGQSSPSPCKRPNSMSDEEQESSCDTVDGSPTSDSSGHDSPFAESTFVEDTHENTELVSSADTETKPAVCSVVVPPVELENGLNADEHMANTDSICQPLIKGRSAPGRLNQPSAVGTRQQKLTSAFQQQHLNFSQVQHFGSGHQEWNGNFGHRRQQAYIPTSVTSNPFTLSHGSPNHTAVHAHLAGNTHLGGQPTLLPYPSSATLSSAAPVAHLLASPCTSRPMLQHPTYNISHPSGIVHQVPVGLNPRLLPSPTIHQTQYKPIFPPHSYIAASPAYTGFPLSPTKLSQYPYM
# WNK4 = WNK4 (Homo sapiens, UniProt Q96J92)
# WNK4, sequence (Q96J92 whole entry): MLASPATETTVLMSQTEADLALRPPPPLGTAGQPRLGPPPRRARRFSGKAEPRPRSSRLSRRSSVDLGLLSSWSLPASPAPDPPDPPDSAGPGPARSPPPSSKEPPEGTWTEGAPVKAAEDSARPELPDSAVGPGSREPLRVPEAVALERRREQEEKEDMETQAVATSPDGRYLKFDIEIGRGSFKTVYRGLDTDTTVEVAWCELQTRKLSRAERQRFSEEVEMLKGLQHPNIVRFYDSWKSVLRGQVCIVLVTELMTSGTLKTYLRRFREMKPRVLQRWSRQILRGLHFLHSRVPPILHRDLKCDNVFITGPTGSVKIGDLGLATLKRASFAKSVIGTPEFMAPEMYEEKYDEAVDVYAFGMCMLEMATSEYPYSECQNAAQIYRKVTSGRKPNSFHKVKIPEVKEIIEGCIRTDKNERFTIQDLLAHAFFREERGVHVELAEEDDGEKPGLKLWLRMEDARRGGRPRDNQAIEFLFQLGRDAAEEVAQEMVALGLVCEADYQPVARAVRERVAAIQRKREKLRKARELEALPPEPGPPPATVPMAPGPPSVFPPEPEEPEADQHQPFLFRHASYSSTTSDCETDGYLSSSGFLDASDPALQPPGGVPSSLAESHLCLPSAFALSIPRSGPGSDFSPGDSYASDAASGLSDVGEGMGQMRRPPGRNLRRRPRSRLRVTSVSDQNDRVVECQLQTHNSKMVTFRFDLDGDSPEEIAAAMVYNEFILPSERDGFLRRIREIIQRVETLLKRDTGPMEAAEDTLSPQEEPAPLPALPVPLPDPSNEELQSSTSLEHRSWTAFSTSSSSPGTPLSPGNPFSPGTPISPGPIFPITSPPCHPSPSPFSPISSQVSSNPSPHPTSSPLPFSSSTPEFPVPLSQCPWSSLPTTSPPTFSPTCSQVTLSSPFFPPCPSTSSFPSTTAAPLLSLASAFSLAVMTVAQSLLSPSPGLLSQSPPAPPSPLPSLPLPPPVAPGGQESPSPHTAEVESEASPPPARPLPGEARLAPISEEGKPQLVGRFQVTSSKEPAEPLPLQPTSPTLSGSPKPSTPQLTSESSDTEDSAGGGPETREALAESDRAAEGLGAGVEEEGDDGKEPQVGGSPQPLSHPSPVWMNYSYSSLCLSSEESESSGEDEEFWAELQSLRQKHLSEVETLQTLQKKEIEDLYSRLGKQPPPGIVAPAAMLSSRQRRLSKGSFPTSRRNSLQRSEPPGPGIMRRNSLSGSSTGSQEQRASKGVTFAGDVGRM
# LATS1 = target: T1, LATS1 (Homo sapiens, UniProt O95835)
# T1 sequence (O95835 1-1130): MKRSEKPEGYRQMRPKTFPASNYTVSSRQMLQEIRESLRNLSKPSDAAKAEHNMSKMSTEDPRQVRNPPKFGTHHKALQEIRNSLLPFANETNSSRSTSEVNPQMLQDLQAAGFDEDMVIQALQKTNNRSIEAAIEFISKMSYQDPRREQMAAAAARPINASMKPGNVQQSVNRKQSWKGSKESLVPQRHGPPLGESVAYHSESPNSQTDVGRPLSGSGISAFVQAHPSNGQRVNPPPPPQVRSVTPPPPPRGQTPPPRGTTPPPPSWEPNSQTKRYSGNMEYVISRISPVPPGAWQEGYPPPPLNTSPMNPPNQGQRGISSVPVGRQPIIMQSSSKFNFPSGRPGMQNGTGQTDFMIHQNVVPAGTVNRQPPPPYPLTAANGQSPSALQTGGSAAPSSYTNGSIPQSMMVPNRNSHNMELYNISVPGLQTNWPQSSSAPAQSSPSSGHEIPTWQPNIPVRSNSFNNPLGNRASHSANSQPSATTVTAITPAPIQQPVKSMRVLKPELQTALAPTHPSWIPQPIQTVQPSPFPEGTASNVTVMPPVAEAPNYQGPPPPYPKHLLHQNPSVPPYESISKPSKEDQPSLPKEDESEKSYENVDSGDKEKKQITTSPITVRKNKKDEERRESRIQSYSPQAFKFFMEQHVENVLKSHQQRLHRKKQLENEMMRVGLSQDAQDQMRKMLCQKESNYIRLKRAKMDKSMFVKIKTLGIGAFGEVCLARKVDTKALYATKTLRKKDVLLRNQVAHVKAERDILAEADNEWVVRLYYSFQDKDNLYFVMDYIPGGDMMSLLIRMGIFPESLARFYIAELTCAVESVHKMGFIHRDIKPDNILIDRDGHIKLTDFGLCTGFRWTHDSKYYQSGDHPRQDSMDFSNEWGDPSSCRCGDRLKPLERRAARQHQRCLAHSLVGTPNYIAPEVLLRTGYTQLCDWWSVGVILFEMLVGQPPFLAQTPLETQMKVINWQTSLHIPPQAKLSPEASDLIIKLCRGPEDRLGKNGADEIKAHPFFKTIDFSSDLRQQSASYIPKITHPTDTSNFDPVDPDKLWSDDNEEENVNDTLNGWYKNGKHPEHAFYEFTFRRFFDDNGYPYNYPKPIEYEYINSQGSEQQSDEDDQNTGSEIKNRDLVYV
# FLT3(D835Y) = target: T2, FLT3(D835Y) (Homo sapiens, UniProt P36888, D835Y)
# T2 sequence (P36888 1-993 D835Y): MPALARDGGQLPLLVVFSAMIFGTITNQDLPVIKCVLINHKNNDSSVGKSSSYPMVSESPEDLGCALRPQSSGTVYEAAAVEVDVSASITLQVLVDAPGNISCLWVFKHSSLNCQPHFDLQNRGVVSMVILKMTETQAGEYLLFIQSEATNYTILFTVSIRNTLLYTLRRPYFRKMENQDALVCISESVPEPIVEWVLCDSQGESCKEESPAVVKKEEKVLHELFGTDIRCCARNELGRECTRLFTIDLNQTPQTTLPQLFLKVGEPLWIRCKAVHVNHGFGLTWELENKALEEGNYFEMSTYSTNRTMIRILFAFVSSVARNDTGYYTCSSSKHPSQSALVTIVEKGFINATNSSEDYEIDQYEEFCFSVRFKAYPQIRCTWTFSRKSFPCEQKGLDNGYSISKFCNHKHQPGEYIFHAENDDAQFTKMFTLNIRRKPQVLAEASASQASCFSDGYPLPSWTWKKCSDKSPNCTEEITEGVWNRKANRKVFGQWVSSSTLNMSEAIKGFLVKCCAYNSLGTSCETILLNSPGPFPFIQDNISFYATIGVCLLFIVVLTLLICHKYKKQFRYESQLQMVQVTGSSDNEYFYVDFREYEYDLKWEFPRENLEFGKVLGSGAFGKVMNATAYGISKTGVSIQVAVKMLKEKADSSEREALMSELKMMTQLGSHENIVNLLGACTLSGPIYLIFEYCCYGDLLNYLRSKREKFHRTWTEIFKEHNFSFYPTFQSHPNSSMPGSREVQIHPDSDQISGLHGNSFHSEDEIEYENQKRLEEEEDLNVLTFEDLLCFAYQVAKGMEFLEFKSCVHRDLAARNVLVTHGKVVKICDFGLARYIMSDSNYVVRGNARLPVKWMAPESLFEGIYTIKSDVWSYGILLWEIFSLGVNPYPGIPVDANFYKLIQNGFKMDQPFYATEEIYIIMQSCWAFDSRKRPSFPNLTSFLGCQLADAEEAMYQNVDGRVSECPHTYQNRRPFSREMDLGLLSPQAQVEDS
# [1] = read-out: Talazoparib (BMN 673) / %Ctrl @ 10000nM
# [2] = read-out: Olaparib / %Ctrl @ 10000nM
# [3] = read-out: Niraparib (MK-4827) / %Ctrl @ 10000nM
# [4] = read-out: Rucaparib / %Ctrl @ 10000nM, binding competition, % of control
# EPHA7, sequence (Q15375 whole entry): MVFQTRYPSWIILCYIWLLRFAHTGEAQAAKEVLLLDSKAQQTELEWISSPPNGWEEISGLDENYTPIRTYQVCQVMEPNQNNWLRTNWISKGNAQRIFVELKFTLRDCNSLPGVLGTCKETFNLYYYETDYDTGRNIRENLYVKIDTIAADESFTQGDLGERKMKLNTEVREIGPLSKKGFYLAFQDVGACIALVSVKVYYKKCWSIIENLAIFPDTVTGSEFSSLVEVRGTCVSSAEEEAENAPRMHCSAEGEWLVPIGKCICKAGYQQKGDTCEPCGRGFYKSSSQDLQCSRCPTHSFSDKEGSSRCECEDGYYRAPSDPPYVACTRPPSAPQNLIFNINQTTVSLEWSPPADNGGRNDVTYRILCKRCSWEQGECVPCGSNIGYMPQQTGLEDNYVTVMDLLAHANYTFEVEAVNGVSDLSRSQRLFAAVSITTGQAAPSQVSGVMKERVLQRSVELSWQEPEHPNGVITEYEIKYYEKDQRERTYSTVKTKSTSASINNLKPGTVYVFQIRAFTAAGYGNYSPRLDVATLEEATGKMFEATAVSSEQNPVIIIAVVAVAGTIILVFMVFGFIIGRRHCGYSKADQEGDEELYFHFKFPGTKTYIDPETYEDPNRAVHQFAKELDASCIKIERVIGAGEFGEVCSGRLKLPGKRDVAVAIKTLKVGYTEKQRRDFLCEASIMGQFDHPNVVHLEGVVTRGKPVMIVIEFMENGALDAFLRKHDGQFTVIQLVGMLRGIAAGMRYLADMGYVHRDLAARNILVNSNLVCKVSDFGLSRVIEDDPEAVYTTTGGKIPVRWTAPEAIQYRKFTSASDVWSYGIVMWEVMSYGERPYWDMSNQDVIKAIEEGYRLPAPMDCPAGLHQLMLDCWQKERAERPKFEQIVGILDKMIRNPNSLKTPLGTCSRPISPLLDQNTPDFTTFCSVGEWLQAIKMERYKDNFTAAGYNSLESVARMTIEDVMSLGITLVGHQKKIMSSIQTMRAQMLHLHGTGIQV
smiles,measurement,setting,value
Cn1ncnc1[C@H]1c2n[nH]c(=O)c3cc(F)cc(c23)N[C@@H]1c1ccc(F)cc1 [Talazoparib],percent of control binding at 10 µM,EPHA7; [1],96%
same,percent of control binding at 10 µM,HIPK3; [1],55%
same,percent of control binding at 10 µM,WNK4; [1],100%
same,percent of control binding at 10 µM,LATS1; [1],92%
same,percent of control binding at 10 µM,FLT3(D835Y); [1],96%
O=C(c1cc(Cc2n[nH]c(=O)c3ccccc23)ccc1F)N1CCN(C(=O)C2CC2)CC1 [Olaparib],percent of control binding at 10 µM,EPHA7; [2],100%
same,percent of control binding at 10 µM,HIPK3; [2],100%
same,percent of control binding at 10 µM,WNK4; [2],100%
same,percent of control binding at 10 µM,LATS1; [2],78%
same,percent of control binding at 10 µM,FLT3(D835Y); [2],87%
NC(=O)c1cccc2cn(-c3ccc([C@@H]4CCCNC4)cc3)nc12 [Niraparib],percent of control binding at 10 µM,EPHA7; [3],89%
same,percent of control binding at 10 µM,HIPK3; [3],2.5%
same,percent of control binding at 10 µM,WNK4; [3],100%
same,percent of control binding at 10 µM,LATS1; [3],36%
same,percent of control binding at 10 µM,FLT3(D835Y); [3],54%
CNCc1ccc(-c2[nH]c3cc(F)cc4c3c2CCNC4=O)cc1 [Rucaparib],percent of control binding at 10 µM,EPHA7; [4],100%
same,percent of control binding at 10 µM,HIPK3; [4],18%
same,percent of control binding at 10 µM,WNK4; [4],97%
same,percent of control binding at 10 µM,LATS1; [4],75%
same,Rucaparib / %Ctrl @ 10000nM,"FLT3(D835Y); binding competition, % of control",24%
